The molecules below were run on CGRP receptor (assay: Capsaicin-induced dermal blood flow (laser Doppler imaging) in non-human primates). Conditions: 3 mg/kg orally, 90 min prior to capsaicin, cynomolgus NHP, compared to vehicle, p<0.008.
Assay type: in vivo
Description: Capsaicin-induced dermal blood flow (DBF) is used as a target engagement biomarker to assess CGRP receptor activity in nonhuman primates (NHPs). Methods are adapted from earlier published procedures [Hershey et al., Regulatory Peptides, Volume 127, Issue 1-3, pp. 71-77, 2005].
Animal studies may be performed under protocols approved by the Covance Institutional Animal Care and Use Committee. Cynomolgus NHPs may be used given the close homology between NHP and human CGRP receptor. The study population may include healthy, CGRP antagonist naive cynomolgus NHP males weighing ˜3-4 kg.
Cynomolgus NHPs are enrolled in the study based on prescreening for capsaicin responsiveness. […] NHPs are used in a cross over design in which all NHPs received all doses after a two week wash-out period. Total n=10 NHPs per group.
NHPs each receive vehicle, 3, 10 and 30 mg/kg of the CGRP receptor antagonist Example 1 administered orally (10% Acacia w/v/0.05% Antifoam 1510-US emulsion v/v/in purified water) 90 min prior to the capsaicin administration in the laser Doppler imaging (LDI) experiment.
Animals are fasted overnight prior to each capsaicin challenge. On the day of the experiment, the NHPs are anesthetized with 1% Isoflurane for approximately 30 min prior to scanning. The NHPs are placed in a quiet, temperature-controlled room supine on a warm small surgical blanket and the shaved arm is placed on a heating pad under the laser head. Three neoprene O-rings (size=8 mm ID) are placed on the NHP forearm, approximately 1 cm apart. During a 30-minute stabilization period, preliminary scans are obtained to confirm correct positioning of the O-rings. […]
LDI repeat scans are analyzed using Moor software v.5.3 (Moor Instruments, Wilmington, Del.) by region of interest signal analysis, and Microsoft Excel worksheets are used for averaging the signal from the regions of interest at a given time point. […] Analyzed data is entered into Graphpad PRISM® 4.0 for graphing and a repeated measurement mixed-effect model in SAS® 9.1 is used for statistical analysis. Data is expressed as mean+/−SEM.

`Cc1cc(CNC(=O)c2ccc([C@@H](C)[C@@]3(C)C(=O)Nc4ncccc43)cn2)cc(C)n1` [Example 1, N-[(2,6-dimethylpyridin-4-yl)methyl]-5-{(1R)-1-[(3R)-3-methyl-2-oxo-2,3-dihydro-1H-pyrrolo[2,3-b]pyridin-3-yl]ethyl}pyridine-2-carboxamide] was tested. Which “group mean inhibition of capsaicin-induced dermal blood flow increase” value did it give?
Its value is 32.1%.

Same assay, conditions: 10 mg/kg orally, 90 min prior to capsaicin, cynomolgus NHP, compared to vehicle, p<0.0004

`Cc1cc(CNC(=O)c2ccc([C@@H](C)[C@@]3(C)C(=O)Nc4ncccc43)cn2)cc(C)n1` [Example 1, N-[(2,6-dimethylpyridin-4-yl)methyl]-5-{(1R)-1-[(3R)-3-methyl-2-oxo-2,3-dihydro-1H-pyrrolo[2,3-b]pyridin-3-yl]ethyl}pyridine-2-carboxamide] was tested. Which “group mean inhibition of capsaicin-induced dermal blood flow increase” value did it give?
The value was 46.1%.

Same assay, conditions: 30 mg/kg orally, 90 min prior to capsaicin, cynomolgus NHP, compared to vehicle, p<0.00002

Which “group mean inhibition of capsaicin-induced dermal blood flow increase” value does the source give for `Cc1cc(CNC(=O)c2ccc([C@@H](C)[C@@]3(C)C(=O)Nc4ncccc43)cn2)cc(C)n1` [Example 1, N-[(2,6-dimethylpyridin-4-yl)methyl]-5-{(1R)-1-[(3R)-3-methyl-2-oxo-2,3-dihydro-1H-pyrrolo[2,3-b]pyridin-3-yl]ethyl}pyridine-2-carboxamide] here?
The value was 58.8%.

Each molecule was assayed against T1, human CGRP receptor (Homo sapiens, UniProt O60894+Q16602) (assay: Inhibition of cAMP production by CGRP receptor antagonists in SK-N-MC cells (HTRF)). Conditions: SK-N-MC neuroblastoma cells, human CGRP 0.8 nM as agonist, Kb estimated as agonist-corrected IC50, mean ± SEM; read-out: Kb hCGRP.
T1 construct: SK-N-MC neuroblastoma cells (ATCC® HTB-10™) that endogenously express the hCGRP receptor; host or cells: SK-N-MC neuroblastoma cells
T1 sequence (Q16602 23-461): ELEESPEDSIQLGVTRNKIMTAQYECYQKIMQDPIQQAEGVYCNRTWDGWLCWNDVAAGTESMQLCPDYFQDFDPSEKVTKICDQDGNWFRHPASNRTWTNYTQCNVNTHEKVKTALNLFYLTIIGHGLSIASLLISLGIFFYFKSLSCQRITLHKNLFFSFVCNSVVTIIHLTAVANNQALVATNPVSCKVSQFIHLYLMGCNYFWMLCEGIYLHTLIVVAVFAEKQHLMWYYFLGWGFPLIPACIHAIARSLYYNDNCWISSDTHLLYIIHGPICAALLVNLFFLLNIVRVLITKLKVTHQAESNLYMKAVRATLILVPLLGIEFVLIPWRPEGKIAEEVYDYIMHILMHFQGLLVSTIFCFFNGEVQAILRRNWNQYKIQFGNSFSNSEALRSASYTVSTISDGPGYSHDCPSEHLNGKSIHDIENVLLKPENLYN
T1 sequence (O60894 27-148): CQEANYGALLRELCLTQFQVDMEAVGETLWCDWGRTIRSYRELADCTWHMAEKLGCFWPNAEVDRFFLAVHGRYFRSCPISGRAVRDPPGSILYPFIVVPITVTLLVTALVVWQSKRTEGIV
Assay type: cell-based
Description: Inhibition of cAMP Production by CGRP Receptor Antagonists
The hCGRP (human calcitonin gene-related peptide) receptor is functionally coupled to the Gαs proteins. Stimulation of hCGRP results in an increased synthesis of intracellular cAMP and can be blocked by the addition of receptor antagonists. Receptor activity is thus a reflection of the amount of cAMP present within cells which can be detected using standard in vitro technology.
Cultured SK-N-MC neuroblastoma cells (ATCC® HTB-10™) that endogenously express the hCGRP receptor are grown in Eagle's Minimum essential medium (HYCLONE™) supplemented with 10% heat-inactivated Fetal bovine serum (FBS; GIBCO®), Non-Essential Amino Acids (GIBCO®), 1 mM sodium pyruvate, 2 mM L-glutamine, 100 U/mL of penicillin, and 10 μg/mL of streptomycin to about 70% confluency. After providing fresh medium, the cells are incubated at 37° C. overnight. On the day of the assay, cells are detached using ACCUTASE® (MP Biomedicals), resuspended in assay buffer [Hank's Balanced Salt Solution/Dulbecco's phosphate-buffered saline with […] each of CaCl2 and MgCl2 mixed 1:2, 3.3 mM 4-(2-hydroxyethyl)-1-piperazineethanesulfonic acid, 0.03% bovine serum albumin, and 0.5 mM 1-methyl-3-isobutylxanthine (as inhibitor of […])], and seeded 3-5K/well into 384-well, poly-D-lysine coated white plates (BD Biosciences).
For dose-response studies, compounds are serially diluted 1:3 in dimethyl sulfoxide and then 1:10 into assay buffer. Human CGRP (0.8 nM; Bachem) as a receptor-specific agonist for the hCGRP receptor is mixed with diluted compound and added to the cells as the challenge stimulant at their EC80 concentrations.
The amount of intracellular cAMP is quantitated using HTRF technology (Cisbio) as per vendor instructions. Briefly, cAMP-d2 conjugate and anti-cAMP-cryptate conjugate in lysis buffer are incubated with the treated cells at room temperature for 90 min. The HTRF signal is immediately detected using an ENVISION® plate reader (Perkin-Elmer) to calculate the ratio of fluorescence at […]. The raw data are converted to cAMP amount (pmole/well) using a cAMP standard curve generated for each experiment. Relative EC50 values are calculated from the top-bottom range of the concentration response curve using a four-parameter logistic curve fitting program (ACTIVITYBASE® v5.3.1.22 or GENEDATA SCREENER® v12.0.4), and Kb values are estimated as agonist-corrected IC50 values using the equation: Kb=(IC50)/[1+([Agonist]/EC50)]. Estimated Kb values are reported as mean values±SEM, averaged from the number of runs (n).

With `Cc1cc(CNC(=O)c2ccc([C@@H](C)[C@@]3(C)C(=O)Nc4ncccc43)cn2)cc(C)n1` [Example 1, N-[(2,6-dimethylpyridin-4-yl)methyl]-5-{(1R)-1-[(3R)-3-methyl-2-oxo-2,3-dihydro-1H-pyrrolo[2,3-b]pyridin-3-yl]ethyl}pyridine-2-carboxamide] as the molecule, how does the Kb read?
The Kb was 46.5 ± 9.7 pM.

`Cc1cc(CNC(=O)c2ccc([C@@H](C)[C@@]3(C)C(=O)Nc4ncccc43)cc2)cc(C)n1` [Example 2, N-[(2,6-dimethyl-4-pyridyl)methyl]-4-[(1R)-1-[(3R)-3-methyl-2-oxo-1H-pyrrolo[2,3-b]pyridin-3-yl]ethyl]benzamide] was tested. Which Kb did it give?
Its Kb is 36.6 ± 15.4 pM.

For `CCc1cc(CNC(=O)c2ccc([C@@H](C)[C@@]3(C)C(=O)Nc4ncccc43)cc2)cc(C)n1` [Example 3, N-[(2-ethyl-6-methylpyridin-4-yl)methyl]-4-{(1R)-1-[(3R)-3-methyl-2-oxo-2,3-dihydro-1H-pyrrolo[2,3-b]pyridin-3-yl]ethyl}benzamide], which Kb is on record?
Its Kb is 17.3 pM.

For `Cc1cc(CNC(=O)c2ccc([C@@H](C)[C@@]3(C)C(=O)Nc4ncccc43)cc2)cc(C2CC2)n1` [Example 4, N-[(2-cyclopropyl-6-methyl-4-pyridyl)methyl]-4-[(1R)-1-[(3R)-3-methyl-2-oxo-1H-pyrrolo[2,3-b]pyridin-3-yl]ethyl]benzamide], which Kb is on record?
Its Kb is 26.6 pM.

For `Cc1cc(CNC(=O)c2ccc([C@@H](C)[C@@]3(C)C(=O)Nc4ncccc43)cc2)cc(C2CCC2)n1` [Example 5, N-[(2-cyclobutyl-6-methylpyridin-4-yl)methyl]-4-{(1R)-1-[(3R)-3-methyl-2-oxo-2,3-dihydro-1H-pyrrolo[2,3-b]pyridin-3-yl]ethyl}benzamide], which Kb is on record?
The Kb was 6.96 pM.

Which Kb does the source give for `Cc1cc(CNC(=O)c2ccc([C@@H](C)[C@@]3(C)C(=O)Nc4ncccc43)cc2)cc(C2CCCC2)n1` [Example 6, N-[(2-cyclopentyl-6-methylpyridin-4-yl)methyl]-4-{(1R)-1-[(3R)-3-methyl-2-oxo-2,3-dihydro-1H-pyrrolo[2,3-b]pyridin-3-yl]ethyl}benzamide] here?
The Kb was 18.2 pM.

Which Kb does the source give for `Cc1cc(C)nc(CNC(=O)c2ccc([C@@H](C)[C@@]3(C)C(=O)Nc4ncncc43)cc2)c1` [Example 7, N-[(4,6-dimethylpyridin-2-yl)methyl]-4-{(1R)-1-[(5R)-5-methyl-6-oxo-6,7-dihydro-5H-pyrrolo[2,3-d]pyrimidin-5-yl]ethyl}benzamide] here?
The Kb was 97.7 ± 2.76 pM.

`Cc1cc(CNC(=O)c2ccc([C@@H](C)[C@@]3(C)C(=O)Nc4ncccc43)cn2)cc(C2CC2)n1` [Example 9, N-[(2-cyclopropyl-6-methylpyridin-4-yl)methyl]-5-{(1R)-1-[(3R)-3-methyl-2-oxo-2,3-dihydro-1H-pyrrolo[2,3-b]pyridin-3-yl]ethyl}pyridine-2-carboxamide] was tested. Which Kb did it give?
The Kb was 24.5 pM.

For `Cc1cc(CNC(=O)c2ccc([C@@H](C)[C@@]3(C)C(=O)Nc4ncncc43)cn2)cc(C)n1` [Example 10, N-[(2,6-dimethyl-4-pyridyl)methyl]-5-[(1R)-1-[(5R)-5-methyl-6-oxo-7H-pyrrolo[2,3-d]pyrimidin-5-yl]ethyl]pyridine-2-carboxamide], which Kb is on record?
The Kb was 198 ± 45.9 pM.

How did the Kb turn out when `Cc1cc(C#N)nc(CNC(=O)c2ccc([C@@H](C)[C@@]3(C)C(=O)Nc4ncccc43)cc2)c1` [Example 11, N-[(6-cyano-4-methyl-2-pyridyl)methyl]-4-[(1R)-1-[(3R)-3-methyl-2-oxo-1H-pyrrolo[2,3-b]pyridin-3-yl]ethyl]benzamide] was run?
Its Kb is 40.4 pM.

How did the Kb turn out when `Cc1cc(C)nc(CNC(=O)c2ccc([C@@H](C)[C@@]3(C)C(=O)Nc4ncccc43)cc2)c1` [Example 12, N-[(4,6-dimethylpyridin-2-yl)methyl]-4-{(1R)-1-[(3R)-3-methyl-2-oxo-2,3-dihydro-1H-pyrrolo[2,3-]pyridin-3-yl]ethyl}benzamide] was run?
Its Kb is 42.8 ± 13 pM.

For `CCc1cc(CNC(=O)c2ccc([C@@H](C)[C@@]3(C)C(=O)Nc4ncccc43)cn2)cc(C)n1` [Example 13, N-[(2-ethyl-6-methylpyridin-4-yl)methyl]-5-{(1R)-1-[(3R)-3-methyl-2-oxo-2,3-dihydro-1H-pyrrolo[2,3-b]pyridin-3-yl]ethyl}pyridine-2-carboxamide], which Kb is on record?
The Kb was 45.3 ± 1.53 pM.

How did the Kb turn out when `Cc1cc(CNC(=O)c2ccc([C@@H](C)[C@@]3(C)C(=O)Nc4ncccc43)cc2)cc(C(C)C)n1` [Example 14, 4-{(1R)-1-[(3R)-3-methyl-2-oxo-2,3-dihydro-1H-pyrrolo[2,3-b]pyridin-3-yl]ethyl}-N-{[2-methyl-6-(propan-2-yl)pyridin-4-yl]methyl}benzamide] was run?
The Kb was 26 pM.

Which Kb does the source give for `Cc1cc(C)nc(CNC(=O)c2ccc([C@@H](C)[C@@]3(C)C(=O)Nc4ncccc43)cn2)c1` [Example 15, N-[(4,6-dimethylpyridin-2-yl)methyl]-5-{(1R)-1-[(3R)-3-methyl-2-oxo-2,3-dihydro-1H-pyrrolo[2,3-b]pyridin-3-yl]ethyl}pyridine-2-carboxamide] here?
Its Kb is 171 ± 33.9 pM.

For `Cc1cc(CNC(=O)c2ccc([C@@H](C)[C@@]3(C)C(=O)Nc4ncccc43)cc2)cc(C#N)n1` [Example 16, N-[(2-cyano-6-methylpyridin-4-yl)methyl]-4-{(1R)-1-[(3R)-3-methyl-2-oxo-2,3-dihydro-1H-pyrrolo[2,3-b]pyridin-3-yl]ethyl}benzamide], which Kb is on record?
The Kb was 813 pM.
